Measurements published in patent publication US20150218563A1, “COMPOSITIONS AND METHODS FOR MODULATION OF RORGAMMAT FUNCTIONS” (priority 2004, published 2015).

Tested on: mRORγt
Test: shRNA inhibition of mRORγt expression in AKR1 cells, monitored by Western blot
Type: cell-based, mouse
Conditions: AKR1 cells infected with retrovirus encoding the shRNA vs empty retroviral vector, HMG-1 loading control
Source text: FIG. 42. Delivery of siRNA Hairpins by a Retroviral vector. […] After the AKR1 cells were infected with these vectors, mRORγt expression was monitored by Western blot. HMG-1 was used as an internal loading control. […] The effect lasted for at least two to three weeks, as shown in the lower panel.
Two shRNA molecules were generated using the DNA sequence of SEQ ID NO: 3 (mouse RORγt). In particular, the nucleotides from position 358-378 of SEQ ID NO: 3 and from position 1269-1289 of SEQ ID NO: 3 (mouse RORγt) were used to generate shRNA molecules. These sequences are as follows:
When tested for the ability to inhibit expression of RORγt, as well as expression of a target molecule for RORgt, significant inhibition of expression was observed. (See FIGS. 42 and 43).

Sequence	inhibition of RORγt expression
GGAACTGGCTTTCCATCATCA (expressed or natural sequence) [SEQ ID NO: 10]	shown to inhibit the expression of RORγt
GGAGCAGACACACTTACATAC (chemistry not given here) [SEQ ID NO: 9]	shown to inhibit the expression of RORγt
